Tests used:
[1] = target: T1, ATP dependent citrate lyase (Mus musculus, UniProt Q91V92); test: Enzyme activity after in vivo dosing: ATP dependent citrate lyase; conditions: 16 mg/kg/day
T1 construct: from tissue
T1 sequence (Q91V92 1-1091): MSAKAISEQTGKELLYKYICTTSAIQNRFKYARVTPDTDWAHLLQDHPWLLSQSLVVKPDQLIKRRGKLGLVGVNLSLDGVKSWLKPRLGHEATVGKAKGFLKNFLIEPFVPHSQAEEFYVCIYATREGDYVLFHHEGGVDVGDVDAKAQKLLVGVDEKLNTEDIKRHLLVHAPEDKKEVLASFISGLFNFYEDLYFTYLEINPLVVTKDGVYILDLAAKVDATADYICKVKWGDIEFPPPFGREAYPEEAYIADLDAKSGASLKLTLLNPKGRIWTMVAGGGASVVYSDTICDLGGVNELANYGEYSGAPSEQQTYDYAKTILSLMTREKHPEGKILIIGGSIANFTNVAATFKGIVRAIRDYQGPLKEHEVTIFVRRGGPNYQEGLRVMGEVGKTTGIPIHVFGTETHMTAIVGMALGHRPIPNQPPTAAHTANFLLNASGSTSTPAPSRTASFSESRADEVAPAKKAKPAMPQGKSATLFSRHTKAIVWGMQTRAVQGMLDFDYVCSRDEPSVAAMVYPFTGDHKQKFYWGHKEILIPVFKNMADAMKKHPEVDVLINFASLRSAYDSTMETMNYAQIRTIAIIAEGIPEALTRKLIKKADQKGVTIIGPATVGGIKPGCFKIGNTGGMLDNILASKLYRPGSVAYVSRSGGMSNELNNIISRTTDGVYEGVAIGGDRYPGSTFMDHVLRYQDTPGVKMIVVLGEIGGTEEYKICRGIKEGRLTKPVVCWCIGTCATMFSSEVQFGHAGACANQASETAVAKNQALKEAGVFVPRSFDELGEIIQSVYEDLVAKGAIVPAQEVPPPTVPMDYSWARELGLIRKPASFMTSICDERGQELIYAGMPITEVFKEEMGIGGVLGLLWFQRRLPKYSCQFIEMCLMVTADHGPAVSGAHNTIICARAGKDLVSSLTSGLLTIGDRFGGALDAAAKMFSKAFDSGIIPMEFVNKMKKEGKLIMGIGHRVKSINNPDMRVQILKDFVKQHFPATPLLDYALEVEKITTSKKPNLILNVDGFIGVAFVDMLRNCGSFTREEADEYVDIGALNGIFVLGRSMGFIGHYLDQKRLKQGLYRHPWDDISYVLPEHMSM

[2] = tested on: phosphatidate phosphohydrolase; test: Enzymatic studies in vitro: phosphatidate phosphohydrolase; assay type: biochemical; conditions: 200 μM
[3] = target: T2, Cholesterol 7α hydroxylase (Mus musculus, UniProt Q64505); test: Enzyme activity after in vivo dosing: cholesterol 7α hydroxylase; conditions: 16 mg/kg
T2 construct: from tissue; host or cells: liver (inferred; the enzyme is liver-specific)
T2 sequence (Q64505 whole entry): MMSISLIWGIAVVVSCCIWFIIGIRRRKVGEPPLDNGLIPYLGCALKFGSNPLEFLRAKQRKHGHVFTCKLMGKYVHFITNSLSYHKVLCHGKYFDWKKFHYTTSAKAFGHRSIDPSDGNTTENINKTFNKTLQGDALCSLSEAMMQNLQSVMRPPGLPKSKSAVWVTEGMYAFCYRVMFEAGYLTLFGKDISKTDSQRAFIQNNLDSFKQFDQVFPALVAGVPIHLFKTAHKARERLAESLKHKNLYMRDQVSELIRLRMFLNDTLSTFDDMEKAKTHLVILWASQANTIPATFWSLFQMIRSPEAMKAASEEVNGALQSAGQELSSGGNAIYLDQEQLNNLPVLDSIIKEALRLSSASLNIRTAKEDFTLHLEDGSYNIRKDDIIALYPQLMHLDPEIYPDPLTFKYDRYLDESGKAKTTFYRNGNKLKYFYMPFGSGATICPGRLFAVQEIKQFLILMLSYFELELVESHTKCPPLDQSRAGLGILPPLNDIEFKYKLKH

[4] = target: T3, HMG CoA reductase (Mus musculus, UniProt Q01237); test: Enzyme activity after in vivo dosing: HMG CoA reductase; conditions: maximal reduction at 4 mg/kg/day
T3 construct: from tissue
T3 sequence (Q01237 1-887): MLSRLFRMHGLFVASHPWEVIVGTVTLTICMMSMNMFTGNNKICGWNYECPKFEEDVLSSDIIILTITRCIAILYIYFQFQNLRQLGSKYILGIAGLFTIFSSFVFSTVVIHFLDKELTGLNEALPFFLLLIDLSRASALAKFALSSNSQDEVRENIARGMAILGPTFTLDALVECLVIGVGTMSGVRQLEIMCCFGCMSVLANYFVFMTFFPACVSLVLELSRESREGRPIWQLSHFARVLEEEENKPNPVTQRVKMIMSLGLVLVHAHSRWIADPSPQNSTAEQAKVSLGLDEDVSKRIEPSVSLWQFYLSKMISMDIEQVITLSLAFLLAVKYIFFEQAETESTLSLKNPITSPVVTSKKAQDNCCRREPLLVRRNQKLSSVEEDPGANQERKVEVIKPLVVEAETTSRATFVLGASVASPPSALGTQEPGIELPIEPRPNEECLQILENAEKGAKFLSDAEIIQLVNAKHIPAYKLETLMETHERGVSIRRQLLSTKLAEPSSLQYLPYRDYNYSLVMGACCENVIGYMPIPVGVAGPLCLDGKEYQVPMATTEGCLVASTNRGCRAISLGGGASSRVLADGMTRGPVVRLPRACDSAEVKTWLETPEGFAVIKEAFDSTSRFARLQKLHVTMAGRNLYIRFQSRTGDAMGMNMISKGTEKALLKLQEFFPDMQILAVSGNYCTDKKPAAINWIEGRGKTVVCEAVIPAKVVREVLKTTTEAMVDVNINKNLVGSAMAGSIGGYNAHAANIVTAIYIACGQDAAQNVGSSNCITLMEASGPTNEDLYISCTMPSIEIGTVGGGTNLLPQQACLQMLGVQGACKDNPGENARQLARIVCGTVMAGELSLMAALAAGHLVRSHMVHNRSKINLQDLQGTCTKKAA

[BH3-][N+](C)(C)CCCCCCCCCCCCCCCCCC [I, N-n-Octadecyl-N,N-Dimethylamine Borane]
reduction of ATP dependent citrate lyase activity [1]: 62% | reduction in phosphatidate phosphohydrolase activity [2]: 67% | reduction of cholesterol 7α hydroxylase activity [3]: 35% | reduction of HMG CoA reductase activity [4]: 34%

From US4740504A, “Antihyperlipidemic amine boranes” (United States Borax & Chemical Corp., priority 1987, dated 1988)
